Measured values as given in patent US9802899B2, “Heterocyclic compounds as pesticides” (BAYER CROPSCIENCE AG, priority 2012, dated 2017).

Assay: Determination of the log P values by HPLC (formic acid method)
Type: physicochemical
Conditions: reversed-phase HPLC column (C 18), reversed-phase column (C 18), acidic range (pH 3.4), 55° C.
Protocol: 1) Description of Method for Determination of the Log P Values (Formic Acid Method)
Eluents for determination in the acidic range (pH 3.4):
Eluent A: acetonitrile+1 ml of formic acid/liter. Eluent B: water+0.9 ml of formic acid/liter.
The lambda max values were determined in the maxima of the chromatographic signals using the UV spectra from 200 nm to 400 nm.

SMILES | chromatographic logP
CC(=O)Nc1cc(F)c(-n2ccc(NC(=O)c3ccccc3C(F)(F)F)n2)c(F)c1 [Compound I-1-583, N-[1-(4-Acetamido-2,6-difluorophenyl)-1H-pyrazol-3-yl]-2-(trifluoromethyl)benzamide] | 2.28
CC(=O)c1cc(F)c(-n2ccc(NC(=O)c3ccccc3C(F)(F)F)n2)c(F)c1 [Compound I-1-584, N-[1-(4-Acetyl-2,6-difluorophenyl)-1H-pyrazol-3-yl]-2-(trifluoromethyl)benzamide] | 2.7
N#Cc1c(-n2ccc(NC(=O)c3ccccc3C(F)(F)F)n2)ccnc1Cl [Compound I-1-585, N-[1-(2-Chloro-3-cyanopyridin-4-yl)-1H-pyrazol-3-yl]-2-(trifluoromethyl)benzamide] | 2.67
N#Cc1c(Cl)ccnc1-n1ccc(NC(=O)c2ccccc2C(F)(F)F)n1 [Compound I-1-586, N-[1-(4-Chloro-3-cyanopyridin-2-yl)-1H-pyrazol-3-yl]-2-(trifluoromethyl)benzamide] | 2.67
N#Cc1cc(F)c(-n2ccc(NC(=O)c3ccccc3C(F)(F)F)n2)nc1Cl [Compound I-1-606, N-[1-(6-Chloro-5-cyano-3-fluoropyridin-2-yl)-1H-pyrazol-3-yl]-2-(trifluoromethyl)benzamide] | 2.94
N#Cc1ccc(Cl)nc1-n1ccc(NC(=O)c2ccccc2C(F)(F)F)n1 [Compound I-1-607, N-[1-(6-Chloro-3-cyanopyridin-2-yl)-1H-pyrazol-3-yl]-2-(trifluoromethyl)benzamide] | 3.14
N#Cc1ccc(-n2ccc(NC(=O)c3ccccc3C(F)(F)F)n2)nc1Cl [Compound I-1-608, N-[1-(6-Chloro-5-cyanopyridin-2-yl)-1H-pyrazol-3-yl]-2-(trifluoromethyl)benzamide] | 3.17

Same assay, conditions: reversed-phase column (C 18), acidic range (pH 3.4), 55° C.

SMILES | log P
O=C(Nc1ccn(-c2ncccc2F)n1)c1cccnc1Cl [Compound I-1-579] | 1.53
O=C(Nc1ccn(-c2ncccc2F)n1)c1c(F)cccc1C(F)(F)F [Compound I-1-580] | 2.36
O=C(Nc1ccn(-c2ncccc2F)n1)c1ccsc1I [Compound I-1-581] | 2.30
O=C(Nc1ccn(-c2ncccc2F)n1)c1occc1I [Compound I-1-582] | 2.16
O=C(Nc1ccn(-c2ncc(Cl)cc2F)n1)c1ccccc1C(F)(F)F [Compound I-1-587] | 2.91
O=C(Nc1ccn(-c2ncc(Cl)cc2F)n1)c1c(F)cccc1F [Compound I-1-588] | 2.60
O=C(Nc1ccn(-c2ncc(Cl)cc2F)n1)c1ccccc1Br [Compound I-1-589] | 2.78
O=C(Nc1ccn(-c2ncc(Cl)cc2F)n1)c1ccccc1Cl [Compound I-1-590] | 2.74
O=C(Nc1ccn(-c2ncc(Cl)cc2F)n1)c1c(F)cccc1C(F)(F)F [Compound I-1-591] | 2.98
O=C(Nc1ccn(-c2ncc(Cl)cc2F)n1)c1ccsc1I [Compound I-1-592] | 2.99
O=C(Nc1ccn(-c2ncc(Cl)cc2F)n1)c1ccccc1I [Compound I-1-593] | 2.89
N#Cc1cncnc1-n1ccc(NC(=O)c2ccccc2C(F)(F)F)n1 [Compound I-1-594] | 2.34
N#Cc1cncnc1-n1ccc(NC(=O)c2c(F)cccc2F)n1 [Compound I-1-595] | 2.03
O=C(Nc1ccn(-c2ccc(F)cn2)n1)c1cccnc1C(F)(F)F [Compound I-1-597] | 2.32
O=C(Nc1ccn(-c2ccc(F)cn2)n1)c1ccccc1I [Compound I-1-599] | 2.78
O=C(Nc1ccn(-c2ncc(F)cn2)n1)c1ccccc1C(F)(F)F [Compound I-1-600] | 2.13
O=C(Nc1ccn(-c2ncc(F)cn2)n1)c1cccnc1C(F)(F)F [Compound I-1-601] | 1.73
O=C(Nc1ccn(-c2ncc(F)cn2)n1)c1c(F)cccc1F [Compound I-1-602] | 1.83
O=C(Nc1ccn(-c2ncc(F)cn2)n1)c1ccccc1Br [Compound I-1-603] | 1.94
O=C(Nc1ccn(-c2ncc(F)cn2)n1)c1ccccc1Cl [Compound I-1-604] | 1.91
O=C(Nc1ccn(-c2ncc(F)cn2)n1)c1ccccc1I [Compound I-1-605] | 2.05
O=C(Nc1ccn(-c2c(F)cccc2F)n1)c1ccccc1CC(F)(F)F [Compound I-1-610] | 3.00
O=C(Nc1ccn(-c2c(F)cccc2F)n1)C1=C(C(F)F)OCCS1 [Compound I-1-611] | 2.53

SMILES | log P
O=C(Nc1ccn(-c2c(F)cccc2F)n1)c1ccccc1NC(=O)C(F)(F)F [Compound I-1-612] | 3.53
O=C(Nc1ccn(-c2c(F)cccc2F)n1)c1c(F)cccc1Br [Compound I-1-613] | 2.72
O=C(Nc1ccn(-c2c(F)cccc2F)n1)c1c(Cl)cccc1C(F)(F)F [Compound I-1-614] | 2.86
CC1=C(C(=O)Nc2ccn(-c3c(F)cccc3F)n2)OCCO1 [Compound I-1-615] | 2.42
CC1=C(C(=O)Nc2ccn(-c3c(F)cccc3F)n2)S(=O)(=O)CCO1 [Compound I-1-616] | 1.80
N#Cc1c(F)cccc1-n1ccc(NC(=O)c2ccccc2C(F)(F)F)n1 [Compound I-1-617] | 2.72
N#Cc1c(F)cccc1-n1ccc(NC(=O)c2cccnc2C(F)(F)F)n1 [Compound I-1-618] | 2.26
N#Cc1c(F)cccc1-n1ccc(NC(=O)c2c(F)cccc2F)n1 [Compound I-1-619] | 2.45
N#Cc1c(F)cccc1-n1ccc(NC(=O)c2ccccc2Br)n1 [Compound I-1-620] | 2.61
N#Cc1c(F)cccc1-n1ccc(NC(=O)c2ccccc2Cl)n1 [Compound I-1-621] | 2.57
N#Cc1c(F)cccc1-n1ccc(NC(=O)c2cccnc2Cl)n1 [Compound I-1-622] | 1.95
N#Cc1c(F)cccc1-n1ccc(NC(=O)c2c(F)cccc2C(F)(F)F)n1 [Compound I-1-623] | 2.68
N#Cc1c(F)cccc1-n1ccc(NC(=O)c2ccsc2I)n1 [Compound I-1-624] | 2.79
N#Cc1c(F)cccc1-n1ccc(NC(=O)c2ccccc2I)n1 [Compound I-1-625] | 2.63
N#Cc1cc(F)ccc1-n1ccc(NC(=O)c2ccccc2C(F)(F)F)n1 [Compound I-1-626] | 2.67
N#Cc1cc(F)ccc1-n1ccc(NC(=O)c2cccnc2C(F)(F)F)n1 [Compound I-1-627] | 2.21
N#Cc1cc(F)ccc1-n1ccc(NC(=O)c2c(F)cccc2F)n1 [Compound I-1-628] | 2.39
N#Cc1cc(F)ccc1-n1ccc(NC(=O)c2ccccc2Br)n1 [Compound I-1-629] | 2.55
N#Cc1cc(F)ccc1-n1ccc(NC(=O)c2ccccc2Cl)n1 [Compound I-1-630] | 2.52
N#Cc1cc(F)ccc1-n1ccc(NC(=O)c2cccnc2Cl)n1 [Compound I-1-631] | 1.91
N#Cc1cc(F)ccc1-n1ccc(NC(=O)c2c(F)cccc2C(F)(F)F)n1 [Compound I-1-632] | 2.64
N#Cc1cc(F)ccc1-n1ccc(NC(=O)c2ccsc2I)n1 [Compound I-1-633] | 2.73
N#Cc1cc(F)ccc1-n1ccc(NC(=O)c2ccccc2I)n1 [Compound I-1-634] | 2.57
